Results reported in paper PMC6385358, “Discovery of ((1,2,4-oxadiazol-5-yl)pyrrolidin-3-yl)ureidyl derivatives as selective non-steroidal agonists of the G-protein coupled bile acid receptor-1” (Scientific Reports, 2019).

Target: T1, GPBAR1 (Homo sapiens, UniProt Q8TDU6)
T1 construct: expressed in transfected cells; host or cells: HEK-293T
T1 sequence (Q8TDU6 1-330): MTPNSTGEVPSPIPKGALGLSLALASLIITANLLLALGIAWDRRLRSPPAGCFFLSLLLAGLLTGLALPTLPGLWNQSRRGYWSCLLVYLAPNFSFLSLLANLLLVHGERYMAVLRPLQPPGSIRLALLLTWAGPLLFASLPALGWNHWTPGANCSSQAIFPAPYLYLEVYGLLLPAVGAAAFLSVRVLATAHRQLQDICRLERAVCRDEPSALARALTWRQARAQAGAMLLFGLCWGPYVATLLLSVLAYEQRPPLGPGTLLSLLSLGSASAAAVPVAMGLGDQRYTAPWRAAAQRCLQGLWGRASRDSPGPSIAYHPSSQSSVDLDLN
Assay: Luciferase reporter (CRE) transactivation assay in HEK-293T cells transfected with GPBAR1
Assay type: cell-based
Conditions: for Emax at 10 µM: HEK-293T, maximal transactivation of CRE, compound 10 μM vs TLCA 10 μM = 100%, read-out: Efficacy (% vs TLCA)
Procedure: The activity of compounds 1–14 on GPBAR1 was evaluated in a luciferase reporter assay using HEK-293T cells transfected with GPBAR1. The efficacy of tested compounds (Table 1) was measured using taurolithocholic acid (TLCA) as GPBAR1 reference compound[10],[11]. Each compound was tested at the concentration of 10 μM and transactivation activity of TLCA on a cAMP responsive element (CRE) (i.e. TGR5/GPBAR1) was considered equal to 100%. […] Thus, 9 and 10 (Table 1) turned out to be the most promising derivatives considering their low EC50 values and high activity efficacy. To further characterize the pharmacological properties of these compounds, we expanded their in vitro profile to common off-targets for bile acid receptor ligands.
Transactivation assay on HEK-293T cells was performed to investigate GPBAR1 activation, using compound 1–14 and TLCA as positive control at 10 µM, as previously reported.
Supplementary Figure S4. HEK-293T cells were transiently transfected with GPBAR1 and a reporter gene containing a cAMP responsive element in front of the luciferase gene. Cells were stimulated with compounds A-L (10 μM). TLCA (10 μM) was used as positive control. Luciferase activity served as a measure of the rise in intracellular cAMP following activation of GPBAR1. In all panels, results are expressed as mean ± standard error. ^∗p < 0.05 versus not treated cells (NT).

Row | SMILES | Emax at 10 µM [%] | GPBAR1 agonist activity in transactivation assay (10 μM, compared to TLCA)
1 | [N-]=[N+]=N[C@@H]1CN[C@H](c2nc(-c3ccccc3)no2)C1 [Compound 2] | 58 to 121 | –
2 | O=C(NCc1ccccc1)N[C@@H]1CN[C@H](c2nc(-c3ccccc3)no2)C1 [Compound 11] | 58 to 121 | –
3 | N[C@@H]1CN[C@H](c2nc(-c3ccccc3)no2)C1 [Compound 3] | 58 to 121 | –
4 | O[C@H]1CN[C@H](c2nc(-c3ccccc3)no2)C1 [Compound 1] | 58 to 121 | –
5 | O=C(Nc1ccc(C(F)(F)F)cc1)N[C@@H]1CN[C@H](c2nc(-c3ccccc3)no2)C1 [Compound 4] | 58 to 121 | moderate GPBAR1 agonist activity
6 | Cc1ccc(NC(=O)N[C@@H]2CN[C@H](c3nc(-c4ccccc4)no3)C2)cc1 [Compound 6] | 58 to 121 | –
